The source of these data is patent US20250281497A1, “FUSED AMINO PYRIMIDINE COMPOUNDS FOR TREATMENT OF SEIZURE DISORDERS” (Ovid Therapeutics Inc., priority 2024, published 2025).

Experiment [1] relates to brain slices. Briefly: In vitro seizure assay, brain slices in 0-Mg ACSF, field recording in entorhinal cortex. On the set-up: species or system mice. Particulars: Compound A 1 μM. From the text:
In vitro seizure assays. […] Slices were then transferred to a Warner Instruments recording chamber and electrodes of 0.5-1 mohm were inserted into layer IIII of the medial entorhinal cortex, several cell layers deep. […] The field recordings were then employed to monitor the development of seizure-like events (SLEs) and their transition to late recurrent discharges (LRDs) which are believed to be analogous to the development of status epilepticus (SE) (Kelley et al., 2016, supra; Moore et al., 2018, supra).

Experiment [2] has as its target T1, KCC2 (Homo sapiens, UniProt Q9H2X9).
T1 construct: expressed in transfected cells; host or cells: HEK-293 (ATCC CRL-1573)
T1 sequence (Q9H2X9 1-1116 isoform Q9H2X9-2): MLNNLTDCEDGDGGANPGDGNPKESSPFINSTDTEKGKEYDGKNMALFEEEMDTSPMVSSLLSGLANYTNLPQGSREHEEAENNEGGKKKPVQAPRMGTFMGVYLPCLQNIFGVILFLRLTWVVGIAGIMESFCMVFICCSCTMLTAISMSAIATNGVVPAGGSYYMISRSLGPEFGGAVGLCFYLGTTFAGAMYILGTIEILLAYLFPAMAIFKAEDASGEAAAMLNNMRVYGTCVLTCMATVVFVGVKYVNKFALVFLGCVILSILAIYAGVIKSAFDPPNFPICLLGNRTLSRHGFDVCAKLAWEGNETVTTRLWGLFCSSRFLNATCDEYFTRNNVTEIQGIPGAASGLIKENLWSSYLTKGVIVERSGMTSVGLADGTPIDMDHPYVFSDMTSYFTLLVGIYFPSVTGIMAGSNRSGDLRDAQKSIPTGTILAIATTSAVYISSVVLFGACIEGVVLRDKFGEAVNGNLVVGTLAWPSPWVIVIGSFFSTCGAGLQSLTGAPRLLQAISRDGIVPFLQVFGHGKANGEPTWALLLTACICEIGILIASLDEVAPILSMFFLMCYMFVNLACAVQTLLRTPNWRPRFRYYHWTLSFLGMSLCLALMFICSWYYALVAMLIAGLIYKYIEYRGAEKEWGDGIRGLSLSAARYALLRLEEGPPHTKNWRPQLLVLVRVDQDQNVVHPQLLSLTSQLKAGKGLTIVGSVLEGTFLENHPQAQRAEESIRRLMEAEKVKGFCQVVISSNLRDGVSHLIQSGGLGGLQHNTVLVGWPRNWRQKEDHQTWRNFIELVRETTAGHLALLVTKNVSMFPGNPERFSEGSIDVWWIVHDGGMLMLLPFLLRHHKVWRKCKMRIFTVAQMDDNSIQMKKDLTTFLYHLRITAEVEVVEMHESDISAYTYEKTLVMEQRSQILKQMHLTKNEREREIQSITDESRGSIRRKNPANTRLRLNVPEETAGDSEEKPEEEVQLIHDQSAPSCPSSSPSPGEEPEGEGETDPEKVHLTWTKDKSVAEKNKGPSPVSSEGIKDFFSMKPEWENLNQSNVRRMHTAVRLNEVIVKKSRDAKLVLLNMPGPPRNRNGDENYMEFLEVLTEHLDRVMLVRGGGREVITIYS
Briefly: Surface biotinylation of KCC2 in HEK-293 cells. It counts as cell-based. Particulars: 15 min. On the procedure: Cell Culture and biotinylation. HEK-293 cells were purchased from ATCC (CRL-1573) and transfected with human KCC2 and GFP expression plasmids using Lipofectamine 2000. Cells were utilized for experimentation 48-72h following transfection. Cells were biotinylated at 4° C. using NHS-Biotin. Following lysis and purification on immobilized avidin beads, cell surface and total fractions were subject to immunoblotting as outlined previously (Conway et al., 2017, supra).
The reliability of the biotinylation procedure was assessed via immunoblotting with antibodies against the cytosolic protein actin. Actin was present in the total lysates but was absent from the surface fractions (FIG. 2C).

Experiment [3] relates to KA induced SE. As to the kind of experiment: KA induced ongoing SE, EEG recording, treatment 2h after KA. It counts as in vivo, mice. To be noted: treatment 2h after KA. On the procedure: EEG recordings and analysis. WT C57Bl/6J adult male mice (12 weeks) were anesthetized with isofluorane and implanted with EEG/EMG electrodes and allowed to recover for 7 days prior to experimentation. […] 2h following KA administration mice were injected with a saturating concentration of diazepam (DZ) 10 mg/kg (IP) and recordings were extended for a further 60 min. […] LabChart 8 software was used for data analysis. Epileptiform activity was identified by changes in the amplitude of electrographic activity characterized by consistent changes in the power of the Fast Fourier transform (FFT) of the EEG and abnormal activity characterized by periods of rhythmic spiking lasting longer than 30s (Moore et al., 2017, supra; Silayeva et al., 2015, supra; Sivakumaran et al., J. Neurosci. 35, 8291-8296 (2015)).
To evaluate the potential of KCC2 activators to terminate ongoing SE, the KA model described above was employed. Mice were injected with KA (20 mg/Kg; IP). […] Spectral data were then subjected to FFT and the total EEG power between 1-100 Hz of the 2h following KA treatment (pre-drug) and 30 min following their injection (post-drug) were compared (FIG. 6B). In mice treated with DZ alone variable effects were observed, from large increases to modest reductions in EEG power, but these effects were not significant (FIG. 6C; pre=1.1±0.2×10^−6, post=4.4±7.4×10^−7 μV^2, p=0.214, n=13-14 mice). […] The latency of the treatments to modify EEG power was examined by measuring the time taken for this parameter to be reduced to 50% (FIG. 6E). […] Finally in mice treated with DZ alone 62% were insensitive to the effects of this agent on EEG power.

Turning to `C[C@@H]1CN(c2nc3c(c(Nc4ccc(C5CCCCC5)cc4)n2)COC3)CCO1` [Compound A, (R)—N-(4-cyclohexylphenyl)-2-(2-methylmorpholino)-5,7-dihydrofuro[3,4-d]pyrimidin-4-amine], the “time to first seizure-like event (SLE)” value in experiment [1] (vehicle=10.5±2.6) is 11.3 ± 3.3 min. Moreover, the “time to late recurrent discharges (LRDs)” value in experiment [1] (vehicle=12.4±4.1) came to 28.4 ± 6.4 min. In addition, the “KCC2 on the plasma membrane (surface/total)” value in experiment [2] (0.3 μM) is given as 94.5±8.4 % of control; in experiment [2] (3 μM), 104.7±8.4 % of control. Also, in experiment [3], the “mice insensitive to DZ effects on EEG power” value is on record as “abolished”.
